Source: ChEMBL document CHEMBL2176989, “Design, synthesis, and pharmacological evaluation of piperidin-4-yl amino aryl sulfonamides: novel, potent, selective, orally active, and brain penetrant 5-HT₆ receptor antagonists” (J Med Chem, 2012)

How the values were obtained:
[1] = target: 5-hydroxytryptamine receptor 6 (Homo sapiens) (UniProt P50406); assay: Antagonist activity at human recombinant 5HT6 receptor expressed in CHO cells assessed as inhibition of 5HT-induced luciferase activity after 4 hrs by reporter gene assay relative to control; format: functional, cell-based
Sequence of 5-hydroxytryptamine receptor 6 (Homo sapiens) (P50406 whole entry): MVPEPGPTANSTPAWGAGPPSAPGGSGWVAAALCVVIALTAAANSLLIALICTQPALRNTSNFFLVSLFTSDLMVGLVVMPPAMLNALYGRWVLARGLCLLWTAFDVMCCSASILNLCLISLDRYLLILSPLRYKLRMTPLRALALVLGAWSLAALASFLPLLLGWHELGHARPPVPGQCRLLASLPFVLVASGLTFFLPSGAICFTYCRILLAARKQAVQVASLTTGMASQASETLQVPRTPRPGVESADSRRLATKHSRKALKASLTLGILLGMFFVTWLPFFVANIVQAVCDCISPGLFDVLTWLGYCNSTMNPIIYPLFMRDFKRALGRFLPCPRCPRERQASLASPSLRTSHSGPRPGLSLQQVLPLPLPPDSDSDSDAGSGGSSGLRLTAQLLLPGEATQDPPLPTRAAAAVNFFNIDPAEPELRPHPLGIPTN

[2] = target: 5-hydroxytryptamine receptor 6 (Homo sapiens) (UniProt P50406); assay: Antagonist activity at human recombinant 5HT6 receptor expressed in CHO cells assessed as inhibition of 5HT-induced luciferase activity after 4 hrs by reporter gene assay; format: functional, cell-based
[3] = Clearance in Wistar rat at 5 mg/kg, iv; format: ADME, organism-based; set-up: dose 5 mg/kg, route intravenous; details: in vivo
[4] = Drug metabolism in Wistar rat liver microsomes at 2.5 uM at 30 mins by LC-MS/MS analysis; format: ADME, Microsome; details: read-out: Drug metabolism
[5] = Half life in Wistar rat at 5 mg/kg, iv; format: ADME, organism-based; set-up: dose 5 mg/kg, route intravenous; details: in vivo
[6] = Cmax in fasted Wistar rat at 10 mg/kg, po; format: ADME, organism-based; set-up: dose 10 mg/kg, route oral; details: in vivo
[7] = Ratio of drug uptake in brain to plasma in Wistar rat at 10 mg/kg, po after 1 hr; format: ADME, organism-based; set-up: dose 10 mg/kg, route oral; details: read-out: BPR
[8] = Tmax in fasted Wistar rat at 10 mg/kg, po; format: ADME, organism-based; set-up: dose 10 mg/kg, route oral; details: in vivo
[9] = Apparent volume of distribution in Wistar rat at 5 mg/kg, iv; format: ADME, organism-based; set-up: dose 5 mg/kg, route intravenous; details: in vivo, read-out: Vz
[10] = AUC (0 to 24 hrs) in Wistar rat at 5 mg/kg, iv; format: ADME, organism-based; set-up: time < 24 hr, dose 5 mg/kg, route intravenous; details: plasma
[11] = AUC (0 to 24 hrs) in fasted Wistar rat at 10 mg/kg, po; format: ADME, organism-based; set-up: time < 24 hr, dose 10 mg/kg, route oral; details: plasma
[12] = Drug metabolism in human liver microsomes at 2.5 uM at 30 mins by LC-MS/MS analysis; format: ADME, Microsome; details: read-out: Drug metabolism
[13] = Oral bioavailability in fasted Wistar rat at 10 mg/kg; format: ADME, organism-based; details: in vivo
[14] = target: Voltage-gated inwardly rectifying potassium channel KCNH2 (Homo sapiens, UniProt Q12809); assay: Displacement of [3H]astemizole from human ERG by microbeta scintillation counting
Sequence of Voltage-gated inwardly rectifying potassium channel KCNH2 (Q12809 whole entry): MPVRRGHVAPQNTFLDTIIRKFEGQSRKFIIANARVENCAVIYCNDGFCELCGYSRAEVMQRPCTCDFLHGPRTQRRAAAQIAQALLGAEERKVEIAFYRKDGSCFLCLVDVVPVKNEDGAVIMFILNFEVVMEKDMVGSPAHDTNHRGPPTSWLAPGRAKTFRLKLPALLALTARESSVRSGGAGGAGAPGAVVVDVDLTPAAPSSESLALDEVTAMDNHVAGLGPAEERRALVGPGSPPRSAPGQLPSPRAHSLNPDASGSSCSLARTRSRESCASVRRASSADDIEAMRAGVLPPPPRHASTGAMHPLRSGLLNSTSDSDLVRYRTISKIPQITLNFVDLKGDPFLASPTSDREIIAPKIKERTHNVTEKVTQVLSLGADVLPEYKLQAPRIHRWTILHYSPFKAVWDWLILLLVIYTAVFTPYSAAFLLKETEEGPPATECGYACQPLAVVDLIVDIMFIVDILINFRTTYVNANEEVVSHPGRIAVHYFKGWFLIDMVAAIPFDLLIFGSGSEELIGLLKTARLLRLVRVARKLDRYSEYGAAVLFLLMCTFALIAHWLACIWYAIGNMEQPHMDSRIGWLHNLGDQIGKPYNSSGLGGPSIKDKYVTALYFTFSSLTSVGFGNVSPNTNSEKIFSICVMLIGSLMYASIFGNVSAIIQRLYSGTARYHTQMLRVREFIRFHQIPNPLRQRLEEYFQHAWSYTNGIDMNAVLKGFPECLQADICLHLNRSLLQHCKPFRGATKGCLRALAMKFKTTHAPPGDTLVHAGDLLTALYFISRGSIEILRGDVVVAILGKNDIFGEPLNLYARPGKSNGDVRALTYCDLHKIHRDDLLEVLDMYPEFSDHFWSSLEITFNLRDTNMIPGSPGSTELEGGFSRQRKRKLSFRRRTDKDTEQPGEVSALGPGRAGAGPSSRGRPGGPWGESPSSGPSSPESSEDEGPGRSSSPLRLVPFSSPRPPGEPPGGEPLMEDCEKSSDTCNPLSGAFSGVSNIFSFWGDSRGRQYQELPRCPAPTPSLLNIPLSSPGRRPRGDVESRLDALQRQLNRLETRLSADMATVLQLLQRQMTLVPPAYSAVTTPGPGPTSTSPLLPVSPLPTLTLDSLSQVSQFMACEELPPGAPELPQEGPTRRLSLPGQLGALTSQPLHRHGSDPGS

[15] = target: Cytochrome P450 2D6 (Homo sapiens, UniProt P10635); assay: Inhibition of CYP2D6 in human liver microsomes using dextromethorphan as substrate after 10 mins by LC-MS/MS analysis in presence of NADPH
Sequence of Cytochrome P450 2D6 (P10635 whole entry): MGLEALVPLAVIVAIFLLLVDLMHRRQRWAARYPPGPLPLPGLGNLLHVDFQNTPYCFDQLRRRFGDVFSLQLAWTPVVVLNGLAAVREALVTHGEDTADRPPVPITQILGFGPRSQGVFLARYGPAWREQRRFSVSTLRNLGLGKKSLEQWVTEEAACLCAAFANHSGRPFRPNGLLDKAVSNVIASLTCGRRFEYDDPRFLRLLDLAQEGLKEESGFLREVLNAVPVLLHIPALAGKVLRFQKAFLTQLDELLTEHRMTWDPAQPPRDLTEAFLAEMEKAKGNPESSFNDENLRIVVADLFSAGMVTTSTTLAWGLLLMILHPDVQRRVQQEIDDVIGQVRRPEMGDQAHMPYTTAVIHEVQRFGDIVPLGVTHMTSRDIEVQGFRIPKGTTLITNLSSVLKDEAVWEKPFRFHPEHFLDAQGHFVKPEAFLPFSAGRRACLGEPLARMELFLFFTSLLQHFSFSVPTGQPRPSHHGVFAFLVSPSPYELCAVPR

Imax [1] [%]	Kb [2] [nM]	SMILES	further results
90	12	COc1cnc2c(ccn2S(=O)(=O)c2ccc(OC)c(NC3CCN(C)CC3)c2)c1	
59	10.1	Cc1nn(S(=O)(=O)c2ccc(F)c(NC3CCN(C)CC3)c2)c2ccc(Cl)cc12	
100	0.1	COc1ccc(S(=O)(=O)n2cc(C)c3ccc(Cl)cc32)cc1NC1CCN(C)CC1	
98	4.37	COc1ccc(S(=O)(=O)n2ccc3cc(Cl)ccc32)cc1NC1CCN(C)CC1	
100	0.1	COc1ccc(S(=O)(=O)N2CCOc3ccc(Cl)cc32)cc1NC1CCN(C)CC1	clearance [3]: 3.48 L/h/kg; metabolised at 0.5 h, 2.5 µM [4]: 85%; half-life [5]: 0.7 h; Cmax [6]: 0.197 µg/mL; Kp at 1 h [7]: 0.6; Tmax [8]: 0.5 h; Vd [9]: 2.5 L/kg; AUC(0-t) at 24 h [10]: 1.45 µg·h/mL; AUC(0-t) at 24 h [11]: 0.384 µg·h/mL; metabolised at 0.5 h, 2.5 µM [12]: 70%; bioavailability [13]: 12%
100	0.1	COc1ccc(S(=O)(=O)N2CCOc3ccc(F)cc32)cc1NC1CCN(C)CC1	
98	0.25	COc1ccc2ccn(S(=O)(=O)c3ccc(C)c(NC4CCN(C)CC4)c3)c2c1	
100	0.3	COc1ccc(S(=O)(=O)n2ccc3cc(F)ccc32)cc1NC1CCNCC1	
100	1.8	COc1ccc(S(=O)(=O)n2ccc3cc(F)ccc32)cc1NC1CCN(C)CC1	
100	0.1	COc1ccc(S(=O)(=O)N2CCOc3ccc(C(F)(F)F)cc32)cc1NC1CCN(C)CC1	
97	1.91	COc1ccc(S(=O)(=O)n2ccc3cc(Br)ccc32)cc1NC1CCN(C)CC1	
98	0.15	COc1ccc(S(=O)(=O)n2ccc3cc(Cl)cnc32)cc1NC1CCN(C)CC1	
100	3.3	COc1ccc2ccn(S(=O)(=O)c3ccc(Cl)c(NC4CCN(C)CC4)c3)c2c1	
96	12.5	COc1ccc2c(ccn2S(=O)(=O)c2cccc(NC3CCN(C)CC3)c2)c1	
97	7.5	Cc1ccc(S(=O)(=O)n2ccc3cc(F)ccc32)cc1NC1CCN(C)CC1	
98	5.3	CCc1ccc(S(=O)(=O)n2ccc3ccc(Cl)cc32)cc1NC1CCN(C)CC1	
94	16	CN1CCC(Nc2cc(S(=O)(=O)n3ccc4cc(Br)ccc43)ccc2F)CC1	
100	0.52	Cc1cn(S(=O)(=O)c2ccc(F)c(NC3CCN(C)CC3)c2)c2ccccc12	
97	3.9	Cc1ccc(S(=O)(=O)n2cc(C)c3cc(Cl)cnc32)cc1NC1CCN(C)CC1	
100	0.3	COc1ccc(S(=O)(=O)n2ccc3ccc(F)cc32)cc1NC1CCNCC1	

More lines, now with the values behind:

SMILES	Imax [1] [%]	Kb [2] [nM]	further results
COc1ccc(S(=O)(=O)n2cc(C)c3cc(Cl)cnc32)cc1NC1CCNCC1	97	0.1	
COc1ccc(S(=O)(=O)n2cc(C)c3cc(Cl)ncc32)cc1NC1CCN(C)CC1	85	1.3	
COc1ccc2c(C)cn(S(=O)(=O)c3ccc(OC)c(NC4CCN(C)CC4)c3)c2c1	100	0.1	
COc1ccc(S(=O)(=O)n2ccc3cc(Br)ccc32)cc1NC1CCNCC1	99	3.2	
Cc1nn(S(=O)(=O)c2ccc(Cl)c(NC3CCN(C)CC3)c2)c2ccc(Cl)cc12	39	28.6	
COc1ccc(S(=O)(=O)N2CCCc3ccccc32)cc1NC1CCNCC1	100	0.1	
COc1ccc2c(ccn2S(=O)(=O)c2ccc(OC)c(NC3CCN(C)CC3)c2)c1	96	3.8	
COc1ccc2ccn(S(=O)(=O)c3ccc(OC)c(NC4CCN(C)CC4)c3)c2c1.O=P(O)(O)O	100	0.1	Kp at 1 h [7]: 0.6
COc1ccc(S(=O)(=O)N2CCOc3ccccc32)cc1NC1CCN(C)CC1	100	0.2	Ki [14]: > 10000 nM
COc1ccc(S(=O)(=O)n2cc(C)c3cc(F)ccc32)cc1NC1CCN(C)CC1	100	0.52	Ki [14]: 950 nM
COc1ccc2c(ccn2S(=O)(=O)c2ccc(C)c(NC3CCN(C)CC3)c2)c1	70	51.3	
CN1CCC(Nc2cccc(S(=O)(=O)n3ccc4ccccc43)c2)CC1	92	3.19	
COc1ccc(S(=O)(=O)N2CCCc3ccccc32)cc1NC1CCN(C)CC1	100	0.06	Kp at 1 h [7]: 0.02
CN1CCC(Nc2cc(S(=O)(=O)n3ccc4ccccc43)ccc2F)CC1	100	1.6	
CCc1ccc(S(=O)(=O)n2ccc3cc(F)ccc32)cc1NC1CCN(C)CC1	95	18.3	
CCc1ccc(S(=O)(=O)n2ccc3c(Cl)cccc32)cc1NC1CCN(C)CC1	90	12.8	

SMILES	Imax [1] [%]	Kb [2] [nM]	further results
COc1ccc2ccn(S(=O)(=O)c3cccc(NC4CCN(C)CC4)c3)c2c1	100	1.2	
COc1ccc2c(ccn2S(=O)(=O)c2ccc(F)c(NC3CCN(C)CC3)c2)c1	95	11.7	
COc1ccc(S(=O)(=O)n2nc(C)c3cc(Cl)ccc32)cc1NC1CCN(C)CC1.O=C(O)C(O)C(O)C(=O)O	100	0.6	clearance [3]: 8.58 L/h/kg; metabolised at 0.5 h, 2.5 µM [4]: 69%; half-life [5]: 1.7 h; Cmax [6]: 0.057 µg/mL; Kp at 1 h [7]: 0.5; Tmax [8]: 2 h; Vd [9]: 16 L/kg; AUC(0-t) at 24 h [10]: 0.6 µg·h/mL; AUC(0-t) at 24 h [11]: 0.3 µg·h/mL; metabolised at 0.5 h, 2.5 µM [12]: 60%; IC50 [15]: 14500 nM; bioavailability [13]: 25%
CN1CCC(Nc2cccc(S(=O)(=O)n3ccc4cc(Br)ccc43)c2)CC1	98	10.3	
COc1ccc(S(=O)(=O)N2CCc3ccccc3C2)cc1NC1CCN(C)CC1	98	0.07	Kp at 1 h [7]: 0.24
CCc1ccc(S(=O)(=O)n2ccc3ccccc32)cc1NC1CCN(C)CC1	99	1.39	
COc1ccc(S(=O)(=O)n2ccc3ccccc32)cc1NC1CCN(C)CC1	100	1.22	
CN1CCC(Nc2cccc(S(=O)(=O)n3ccc4ccc(Cl)cc43)c2)CC1	98	2.39	
COc1ccc(S(=O)(=O)n2ccc3cc(OC(C)C)ccc32)cc1NC1CCN(C)CC1	100	2.2	
COc1ccc(S(=O)(=O)N2CC(C)(C)Oc3ccc(F)cc32)cc1NC1CCN(C)CC1	100	0.1	
COc1ccc(S(=O)(=O)N2CCOc3ccc(C)cc32)cc1NC1CCN(C)CC1	100	0.1	
COc1ccc(S(=O)(=O)n2cc(C)c3nc(Cl)ccc32)cc1NC1CCN(C)CC1	98	1.7	
COc1ccc(S(=O)(=O)n2ccc3ccc(Cl)cc32)cc1NC1CCN(C)CC1	100	0.14	
Cc1cn(S(=O)(=O)c2cccc(NC3CCN(C)CC3)c2)c2ncc(Cl)cc12	99	4	
COc1ccc(S(=O)(=O)n2ccc3ccc(F)cc32)cc1NC1CCN(C)CC1	100	0.2	
COc1cnc2c(c1)c(C)cn2S(=O)(=O)c1ccc(OC)c(NC2CCN(C)CC2)c1	95	2.3	
